Test results published in PubChem BioAssay (NCI).
“And” between values parts separate entries of the source, which are not always exact repeats. Equal entries are not always repeated.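 Assay format: 96-well plates, 48-hour exposure. GI50 is the concentration that inhibits growth by half. Definition used: TGI = concentration required for complete inhibition of growth.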

Key:
Experiment in all cases: growth of human tumour cells (NCI), 48 h
[1] = tested on: HT29 colon
[2] = tested on: HCC-2998 colon
[3] = tested on: NCI-H23 lung
[4] = tested on: UACC-62 melanoma
[5] = tested on: U251 CNS
[6] = tested on: NCI-H522 lung
[7] = tested on: HOP-62 NSCLC
[8] = tested on: NCI-H460 lung
[9] = tested on: UACC-257 melanoma
[10] = tested on: HS 578T breast

Compound	TGI [1]	TGI [2] [µM]	TGI [3]	TGI [4]	TGI [5]	TGI [6] [µM]	TGI [7] [µM]	TGI [8]	TGI [9] [µM]	GI50 [1] [µM]	GI50 [2] [µM]	GI50 [3] [µM]	GI50 [4] [µM]	GI50 [5] [µM]	GI50 [6] [µM]	GI50 [7] [µM]	GI50 [8] [µM]	GI50 [9] [µM]	GI50 [10] [µM]	TGI [10] [µM]
O=C1c2ccccc2C2(O)Oc3cccc(O)c3C12O (stereo unspecified)	> 100 µM	> 100	> 100 µM	> 100 µM	> 100 µM	> 100	> 100	> 100 µM	> 100											
Cn1cnc([N+](=O)[O-])c1Sc1nnc(C(F)(F)F)n1C	> 100 µM	> 100	> 100 µM	33.5 µM	37.2 µM	23.9	> 100	> 100 µM	32.9											
O=C1NC(=S)NC(=O)C1=Cc1ccc2ccccc2n1	> 100 µM	> 100	> 100 µM	> 100 µM	> 100 µM	> 100	> 100	> 100 µM	> 100											
C1C[OH+]CC[OH+]CC[OH+]CC[OH+]CC[OH+]CC[OH+]1.[Cl-].[Ta+5]	> 100 µM	> 100	> 100 µM	> 100 µM	> 100 µM	> 100	> 100	> 100 µM	> 100	> 100	> 100	> 100	> 100	> 100	> 100	> 100	> 100	> 100		
C=C(C(=O)OC)[C@@H]1C[C@@H](O)[C@]2(C)CC/C=C(\C)CCC[C@H](C)[C@H](O)C1O2	> 100 µM	> 100	> 100 µM	> 100 µM	> 100 µM	> 100	> 100	> 100 µM	> 100	53	73	80.6	40.5	51.4	26.1	> 100	75.5	> 100	32.8	> 100
O=C(/C=C/c1ccc(Cl)cc1)c1ccncc1	44.4 µM	> 100	> 100 µM	> 100 µM	> 100 µM	> 100	> 100	> 100 µM	> 100											
CN1c2ccccc2C(C)(C)C12CC(c1ccc(Cl)c(S(=O)(=O)N3CCCC3)c1)=NO2 (stereo unspecified)		> 100	> 100 µM		> 100 µM	> 100	> 100	> 100 µM	> 100		> 100	> 100		0.531	> 100	83.7	0.375	> 100	> 100	> 100
C=CCNC(=S)OCCCCCCCCCC	32.5 µM	31.8	37.8 µM	30.2 µM	30.8 µM		36.3	33 µM	34.6											
CC(C)(CCC(C)(C)c1ccccc1)c1ccccc1	27.8 µM		33.9 µM	41.4 µM	30.4 µM	29.9	35.4	31.9 µM	29.2											53.4
COC1(OC)c2ccccc2C2(O)c3ccccc3C(=O)C12 (stereo unspecified)	> 100 µM	> 100	> 100 µM	> 100 µM	> 100 µM	47		> 100 µM	83.9											
COc1ccc(-c2c(C#N)c(N)nc3c2CCCc2ccc(F)cc2-3)cc1OC	> 41.3 µM	14.4	> 100 µM			33.5	29.7	> 52.6 µM	> 78.5	1.07	0.354	0.487	< 0.0169	< 0.0501	< 0.01	0.131	0.0163			
CC(C)(C)C(=O)OCC(COC(=O)C(C)(C)C)[N+](=O)[O-]	> 100 µM	> 100	> 100 µM	> 100 µM	> 100 µM	47.3		> 100 µM	> 100											
CCOC(=O)C1(C(=O)OCC)CC=C(C)CC12C(=O)Nc1ccccc12 (stereo unspecified)	> 100 µM	> 100	> 100 µM	> 100 µM	> 100 µM	> 100	> 100	> 100 µM												
O=[N+]([O-])c1ccc(O)c2ncccc12	> 100 µM and 18.9 µM	18.5	> 100 µM and 28.9 µM	> 100 µM and 11.6 µM	> 100 µM and 13.3 µM			> 100 µM and 11.4 µM			5.21									> 100
COc1ccc(N2C(=O)C3c4[nH]c5ccccc5c4C4CCC(C(C)(C)C)CC4C3C2=O)cc1OC (stereo unspecified)	> 100 µM	> 100	> 100 µM	> 100 µM	73 µM	33.4	34.8		> 100											
O=C(O/N=C1/CCCC/C1=C\c1ccccc1)c1ccc(Cl)cc1	> 100 µM	36.2	> 100 µM	> 100 µM	> 100 µM	> 100	> 100	> 100 µM	> 100											
COC(=O)c1ccccc1N=Cc1ccc(N(CCC#N)S(=O)(=O)c2ccccc2)cc1	> 100 µM		> 100 µM	> 100 µM	> 100 µM	> 100	> 100	> 100 µM	> 100											
COc1cc(/C=C2\CCc3ccccc3C2=O)cc(OC)c1OC	32.5 µM	32.2	29.2 µM	27.5 µM	29.7 µM	28.2	47.8	36.4 µM	27.4											
COc1ccc(S(=O)(=O)N/N=C(\C)CN2C(=O)c3ccccc3C2=O)cc1	> 100 µM	> 100	> 100 µM	> 100 µM	> 100 µM	> 100	> 100	> 100 µM	> 100											
Cc1ccc(-n2c(-c3ccc(Cl)cc3)cs/c2=N\NC(=O)COc2n[nH]c(=O)c3ccccc23)cc1	> 100 µM		> 100 µM	> 100 µM	> 100 µM	> 100	> 100	> 100 µM	> 100	> 100		34.1	23.4	37.5	> 100	51.8	> 100	80.2	27.5	> 100
CCCCC#Cc1cccc(=O)o1	> 100 µM		> 100 µM	> 100 µM		> 100	> 100	> 100 µM	> 100	7.03		8.98	30		7.16	> 100	36.2	30.9	> 100	> 100

Compound	TGI [1]	TGI [2] [µM]	TGI [3]	TGI [4]	TGI [5]	TGI [6] [µM]	TGI [7] [µM]	TGI [8]	TGI [9] [µM]	GI50 [1] [µM]	GI50 [2] [µM]	GI50 [3] [µM]	GI50 [4] [µM]	GI50 [5] [µM]	GI50 [6] [µM]	GI50 [7] [µM]	GI50 [8] [µM]	GI50 [9] [µM]	GI50 [10] [µM]	TGI [10] [µM]
COC(=O)C(=O)C(C#N)c1ccc(Cl)c(Cl)c1 (stereo unspecified)	> 100 µM		> 100 µM	> 100 µM	> 100 µM	> 100			> 100											
Cc1nn(C)c(=O)c2nn(-c3ccccc3)c(C)c12	> 100 µM	> 100	> 100 µM	> 100 µM	> 100 µM	> 100	> 100	> 100 µM	> 100											
N#CC(=S)Nc1ccc(F)cc1	> 100 µM	> 100	> 100 µM	> 100 µM	> 100 µM		> 100	> 100 µM	> 100											
O=C1CCC(=O)C12CCc1cccc(O)c12	> 100 µM	> 100	> 100 µM	> 100 µM	> 100 µM		> 100	> 100 µM												
Cc1ccc([Se][Se]c2ccc(C)cc2)cc1	> 100 µM	> 100	> 100 µM	31.7 µM	17.5 µM	16.3	> 100	> 100 µM	68.8											
O=C(Nc1ccccc1F)c1ccc(NC2=C(Cl)C(=O)N(Cc3ccccc3)C2=O)cc1	13.5 µM	29.1	25.7 µM	15.9 µM	26 µM	5.34		19.3 µM	29.8	4.18	15.7	13	4.39	13.3	2.21		6.6	12.5	2.95	9.4
Cc1nn(C)c(=S)n(C)c1=O	> 100 µM	> 100	10.6 µM	> 100 µM	30.1 µM	0.822	11.4	> 100 µM	11.2											
CC1(CO)C(=O)OC12CCCCC2 (stereo unspecified)	> 100 µM	> 100	> 100 µM	> 100 µM		> 100	> 100		> 100											
CN(Cc1ccccc1)C1(N(C)Cc2ccccc2)CC1	> 100 µM	> 100	> 100 µM	> 100 µM	> 100 µM	> 100	> 100	> 100 µM	> 100											
NC(=S)N/N=C(\C(=O)Nc1ccc(Cl)c(Cl)c1)C1=NN(c2ccccc2)C(c2cccc([N+](=O)[O-])c2)CC1=O (stereo unspecified)	34.8 µM	> 100	46.9 µM	> 100 µM	17 µM		84.2	> 100 µM	83.1											
CC1=C(c2cc(C(=O)Nc3cccc(C(F)(F)F)c3)nc(NC#N)n2)Sc2ccccc2N1	> 100 µM	> 100	> 100 µM	> 100 µM	> 100 µM		> 100	> 100 µM	> 100											
COc1cc(C(CC(OC)OC)=C(C#N)C#N)cc(OC)c1OC	73.4 µM	40.4	> 100 µM	> 100 µM	91.4 µM	32.9		23.4 µM	36.9											
COC(=O)c1cc2c(cc1Cl)SC(N(N(C)C)S(=O)(=O)c1ccc(Cl)cc1)=NS2(=O)=O	31.9 µM	32.7	43.5 µM	35.6 µM	44.8 µM	30.2	48.7	37.4 µM		16.1	16.1	19.7	17	17	12.4	19.6	18.7		18.8	48.6
COc1cccc2c(Nc3ccc(C(=O)NCCN(C)C)cc3)cc(-c3ccccc3)nc12	> 100 µM	24.9	45.6 µM	32.5 µM	38.3 µM	32.4	29.3		29.9	28.5	11.5	20.3	18.2	18.8	16.6	13.8		15.7	21.4	53.6
COc1ccc(/C=C/C(C(=O)O)C(=O)O)cc1	> 100 µM	> 100	> 100 µM	> 100 µM	> 100 µM	> 100	> 100	> 100 µM	> 100											
CN(C)CCNC(=O)c1cccc2c1nc(-c1ccccn1)c1ccccc12	39.9 µM	32.4	30 µM	31.4 µM	34.5 µM		36.2	23.2 µM	30.4											
N#Cc1nc(Nc2ccc([N+](=O)[O-])cc2)sc1N	> 100 µM	33.1	20.5 µM	50.8 µM	> 48.5 µM	32.1	75.8	> 100 µM	63.7											
COP1(=S)OCC2CCC[C@@H]2O1 (stereo partly specified)	> 100 µM	> 100	> 100 µM	> 100 µM	> 100 µM	> 100		> 100 µM	> 100											
CC1=N/C(=C\c2cccc3ccccc23)C(=O)O1	> 100 µM	> 100	> 100 µM	> 100 µM	> 100 µM	> 100	> 100	> 100 µM	> 100											
CCCCCCCCCC(=O)N[C@H]1CCc2cc(OC)c(OC)c(OC)c2-c2ccc(SC)c(=O)cc21	0.0645 µM	0.0563		15.3 µM	0.0618 µM			0.306 µM	13.9											
Cc1ccc(N(C(=O)CC(=O)N2N=C(c3ccccc3)C(N=Nc3ccc([N+](=O)[O-])cc3)C2=O)C(=O)c2ccc(Cl)cc2)cc1 (stereo unspecified)	> 53 µM	> 100	28.2 µM	> 100 µM	23.7 µM	9.76	29.8	> 47.8 µM	> 72.7											
